Read-outs that look alike come from different tables or passages of the source.
How the values were obtained:
[1] = test system: Gardnerella vaginalis; experiment: Agar dilution MIC (CLSI), Gardnerella vaginalis vaginal isolates; format: cell-based; details: for Number of strains with indicated MIC: 100 samples
[2] = test system: Mobiluncus spp; experiment: Agar dilution MIC (CLSI), Mobiluncus spp vaginal isolate; format: cell-based; details: read-out: Minimal Inhibitory Concentration (MIC)
[3] = test system: Prevotella bivia; experiment: Agar dilution MIC (CLSI), Prevotella bivia vaginal isolates; format: cell-based; details: for Number of strains with indicated MIC: 34 samples; for MIC: read-out: Minimal Inhibitory Concentration (MIC)
[4] = test system: Anaerococcus tetradius; experiment: Agar dilution MIC (CLSI), Anaerococcus tetradius vaginal isolates; format: cell-based; details: for MIC: read-out: Minimal Inhibitory Concentration (MIC)
[5] = test system: Finegoldia magna; experiment: Agar dilution MIC (CLSI), Finegoldia magna vaginal isolates; format: cell-based; details: for MIC: read-out: Minimal Inhibitory Concentration (MIC)
[6] = test system: Megasphaera-like bacteria; experiment: Agar dilution MIC (CLSI), Megasphaera-like bacteria vaginal isolates; format: cell-based; details: for MIC: read-out: Minimal Inhibitory Concentration (MIC)
[7] = test system: B. fragilis, ATCC 25285; details: agar dilution testing, from CLSI Table 5; cited from earlier work
[8] = test system: B. thetaiotaomicron, ATCC 29741; details: agar dilution testing, from CLSI Table 5; cited from earlier work
[9] = Gardnerella vaginalis, # tested 107
[10] = Anaerococcus tetradius, # tested 21
[11] = number (%) of isolates, # tested 20

Cc1ncc([N+](=O)[O-])n1CCO [Metronidazole]
13: Number of strains with indicated MIC ([3]; MIC 16 μg/ml)
8 µg/mL: MIC ([3]; Prevotella bivia, isolate 601293 22) | MIC ([3]; Prevotella bivia, isolate 601355 B) | MIC ([3]; Prevotella bivia, isolate 601367 M) | MIC ([3]; Prevotella bivia, isolate 601429 1) | MIC ([3]; Prevotella bivia, isolate 601433 19) | MIC ([3]; Prevotella bivia, isolate 601453 A) | MIC50 ([3]; Prevotella bivia, # tested 34)
6: Number of strains with indicated MIC ([1]; MIC […]) | Number of strains with indicated MIC ([3]; MIC 8 μg/ml)
64 µg/mL: MIC50 [1, 9]
21 (62) μg/ml: Susceptible ([3]; number (%) of isolates, # tested 34)
0.5 to 4 µg/mL: MIC Range ([5]; # tested 20)
50.2 µg/mL: MIC ([6]; isolate 602236 E3)
limited activity: activity against G vaginalis [1]
4 to 16 µg/mL: MIC Range ([3]; # tested 34)
12: Number of strains with indicated MIC ([1]; MIC 8 μg/ml)
0.25 to 1 µg/mL: Acceptable Range of MIC for control strain [7]
20 (100) μg/ml: Susceptible [5, 11]
16 µg/mL: MIC ([3]; Prevotella bivia, isolate 601166 M) | MIC ([3]; Prevotella bivia, isolate 601202 21) | MIC ([3]; Prevotella bivia, isolate 601213 9A) | MIC ([3]; Prevotella bivia, isolate 601214 B) | MIC ([3]; Prevotella bivia, isolate 601243 15) | MIC ([3]; Prevotella bivia, isolate 601283 20) | MIC ([3]; Prevotella bivia, isolate 601305 H) | MIC ([3]; Prevotella bivia, isolate 601374 A1) | MIC ([3]; Prevotella bivia, isolate 601378 B) | MIC ([3]; Prevotella bivia, isolate 601379 19) | MIC ([3]; Prevotella bivia, isolate 601449 E) | MIC ([3]; Prevotella bivia, isolate 601455 D1) | MIC ([3]; Prevotella bivia, isolate 601458 16) | MIC90 ([3]; Prevotella bivia, # tested 34)
4 µg/mL: MIC ([3]; Prevotella bivia, isolate 601096 25) | MIC ([3]; Prevotella bivia, isolate 601203 5) | MIC ([3]; Prevotella bivia, isolate 601209 A1) | MIC ([3]; Prevotella bivia, isolate 601212 9) | MIC ([3]; Prevotella bivia, isolate 601241 13) | MIC ([3]; Prevotella bivia, isolate 601255 10) | MIC ([3]; Prevotella bivia, isolate 601261 C) | MIC ([3]; Prevotella bivia, isolate 601285 14) | MIC ([3]; Prevotella bivia, isolate 601340 31) | MIC ([3]; Prevotella bivia, isolate 601388 T) | MIC ([3]; Prevotella bivia, isolate 601389 10) | MIC ([3]; Prevotella bivia, isolate 601389 J) | MIC ([3]; Prevotella bivia, isolate 601392 14) | MIC ([3]; Prevotella bivia, isolate 601409 V) | MIC ([3]; Prevotella bivia, isolate 601410 12) | MIC ([5]; Finegoldia magna, isolate 601205V 39) | MIC ([5]; Finegoldia magna, isolate 601275V c) | MIC ([5]; Finegoldia magna, isolate 601315V 17) | MIC ([5]; Finegoldia magna, isolate 601315V 17A) | MIC ([5]; Finegoldia magna, isolate 601320V 24) | MIC ([5]; Finegoldia magna, isolate 601330V c) | MIC ([5]; Finegoldia magna, isolate 601340V 27) | MIC ([5]; Finegoldia magna, isolate 601359V c) | MIC ([5]; Finegoldia magna, isolate 601367V c) | MIC90 ([5]; Finegoldia magna, # tested 20)
0.03 µg/mL: MIC [2]
34: Number of strains with indicated MIC ([1]; MIC >[…])
14: Number of strains with indicated MIC ([1]; MIC 32 μg/ml)
0 µg/mL: Intermediate [5, 11]
128 µg/mL: MIC ([4]; Anaerococcus tetradius, isolate 601221V 12)
16: Number of strains with indicated MIC ([1]; MIC 16 μg/ml)
0.5 µg/mL: MIC ([5]; Finegoldia magna, isolate 301303V D) | MIC ([5]; Finegoldia magna, isolate 601323V K)
1 µg/mL: MIC ([4]; Anaerococcus tetradius, isolate 601103V 21) | MIC ([4]; Anaerococcus tetradius, isolate 601175V I) | MIC ([4]; Anaerococcus tetradius, isolate 601202V 11) | MIC ([4]; Anaerococcus tetradius, isolate 601212V 14) | MIC ([4]; Anaerococcus tetradius, isolate 601242V 17) | MIC ([4]; Anaerococcus tetradius, isolate 601256V 9) | MIC ([4]; Anaerococcus tetradius, isolate 601287V V) | MIC ([4]; Anaerococcus tetradius, isolate 601305V J) | MIC ([4]; Anaerococcus tetradius, isolate 601326V H) | MIC ([4]; Anaerococcus tetradius, isolate 601340V 25) | MIC ([4]; Anaerococcus tetradius, isolate 601342V N) | MIC ([4]; Anaerococcus tetradius, isolate 601368V 42) | MIC ([4]; Anaerococcus tetradius, isolate 601369V 12) | MIC ([4]; Anaerococcus tetradius, isolate 601379V 25) | MIC ([4]; Anaerococcus tetradius, isolate 601401V T) | MIC ([4]; Anaerococcus tetradius, isolate 601429V 15) | MIC ([4]; Anaerococcus tetradius, isolate 601450V 22) | MIC ([4]; Anaerococcus tetradius, isolate 602375V 22) | MIC50 [4, 10] | MIC90 [4, 10] | MIC ([5]; Finegoldia magna, isolate 601295V 25) | MIC ([5]; Finegoldia magna, isolate 601335V c1) | MIC ([5]; Finegoldia magna, isolate 601363V 6)
0.25 µg/mL: MIC ([6]; 427510 h, isolate 427507 H) | MIC50 ([6]; # tested 25) | MIC90 ([6]; # tested 25) | MIC ([6]; isolate 426749 T) | MIC ([6]; isolate 426766 Q) | MIC ([6]; isolate 426788 8a) | MIC ([6]; isolate 426788 C) | MIC ([6]; isolate 427522 8) | MIC ([6]; isolate 600770 O) | MIC ([6]; isolate 600790 N) | MIC ([6]; isolate 600831 9) | MIC ([6]; isolate 600837 18) | MIC ([6]; isolate 600861 P) | MIC ([6]; isolate 602241 D) | MIC ([6]; isolate 602241 F) | MIC ([6]; isolate 602270 A) | MIC ([6]; isolate 602282 I) | MIC ([6]; isolate 602302 22) | MIC ([6]; isolate 602305 I) | MIC ([6]; isolate 602324 8) | MIC ([6]; isolate 602672 12A)
1: Number of strains with indicated MIC ([4]; MIC […], 21 samples)
15: Number of strains with indicated MIC ([1]; MIC 64 μg/ml) | Number of strains with indicated MIC ([3]; MIC […] μg/ml)
0.5 to 2 µg/mL: Acceptable Range of MIC for control strain [8]
> 128 µg/mL: MIC90 [1, 9]
2 µg/mL: MIC ([5]; Finegoldia magna, isolate 601214V F) | MIC ([5]; Finegoldia magna, isolate 601276V 23) | MIC ([5]; Finegoldia magna, isolate 601283V 14) | MIC ([5]; Finegoldia magna, isolate 601293V 27) | MIC ([5]; Finegoldia magna, isolate 601298V 30) | MIC ([5]; Finegoldia magna, isolate 601308V 24) | MIC50 ([5]; Finegoldia magna, # tested 20)
